According to publication PMC5019189 (European journal of pharmacology, 2015):
Read-outs that look alike come from different tables or passages of the source.

Columns and labels:
[1] = tested on: abnormal MHC gene expression in thyroid epithelial cells; details: ref Giuliani et al., 2010; cited from earlier work
[2] = tested on: TNF-α-induced VCAM-1 mRNA expression; details: human aortic endothelial cells, Northern blot analysis; ref Dagia et al., 2004; cited from earlier work
[3] = tested on: TNF-α-induced VCAM-1 protein expression; assay: ELISA of 24 h TNF-α-induced VCAM-1 protein expression on HUVEC; format: cell-based, human; details: for inhibition of the VCAM-1 protein expression elicited by TNF-α: 50 μM compound
HUVEC = assay: Cell viability; format: cell-based, human; details: 24 h, linear regression, mean of three experiments

IC50 ([3]; read-out: IC50, concentration of compound needed to inhibit 50% of the VCAM-1 expression, 10 ng/ml TNF-α, 24 h, ELISA, linear regression, average of at least three experiments) [µM]	IC50 ([3]; Homo sapiens, 24 h, read-out: IC50, concentration of compound needed to inhibit 50% of the VCAM-1 expression) [µM]	SMILES	suppression of abnormal MHC gene expression compared to MMI [1]	effect on 24 h TNF-α-induced VCAM-1 mRNA expression [2]	inhibition of the VCAM-1 protein expression elicited by TNF-α ([3]; 24 h TNF-α)	TC50, concentration of compound needed to reduce the MTS signal by 50% of the control value (HUVEC) [µM]	inhibition of VCAM-1 protein expression ([3]; 70 μM compound, 24 h TNF-α)
66		Cn1c(-c2ccccc2)c[nH]c1=S [1a, 4-phenyl-3-methyl-1, 3 imidazole-2-thione]	70–100 fold	inhibits	over 40%		
	1140	Cn1cc[nH]c1=S [MMI, 3-methyl-1, 3 imidazole-2 thione]			no inhibitory effect	2450	little, if any, inhibition
